Columns and labels:
[1] = Radiochemical purity of [^18F]PI-2620 radiopharmaceutical composition over time at 40° C. by HPLC; type: physicochemical
Protocol: Fluoride ([^18F]) and 2 mg of a precursor were dissolved in dimethyl sulfoxide, and the reaction mixture was fluorinated using an SN2 reaction at a temperature of 100° C. or higher. Then, a protecting group was hydrolyzed with sulfuric acid, and the mixture was neutralized with sodium hydroxide, purified using high-performance liquid chromatography (HPLC) (purification conditions: Luna C18 250×10 mm, phosphate buffer:acetonitrile=70:30 (v/v), 5.0 mL/min, UV=254 nm), and then formulated (formulation composition: 100 mg of sodium ascorbate, 2 nM phosphate buffer, and 10% ethanol) to obtain the [^18F]PI-2620 compound having a radiochemical purity of 100% (FIG. 1).
[^18F]PI-2620 was formulated with ethanol, ascorbic acid, and a phosphate buffer, and the radiochemical purity of the radiopharmaceutical composition was then measured at the elapsed times of 0 hour, 2 hours, 4 hours, and 6 hours at a temperature of 40° C. using HPLC (analysis conditions: Luna C18 250×4.6 mm, phosphate buffer:acetonitrile=60:40 (v/v), 1.0 mL/min, UV=254 nm).
[^18F]PI-2620 was obtained as a compound having a radiochemical purity of 100% in the same manner as in Example 1. To further confirm the stability of the compound, 2 equivalents of sodium ascorbate used in Example 1 was added during a formulation process (formulation composition: 200 mg of sodium ascorbate, a 2 nM phosphate buffer, and 10% ethanol), and the radiochemical purity of the radiopharmaceutical composition was then measured in the same manner as in Example 1 at the elapsed times of 0 hour, 2 hours, 4 hours, and 6 hours at a temperature of 40° C. using high-performance liquid chromatography (HPLC)
[^18F]PI-2620 was obtained as a compound having a radiochemical purity of 100% in the same manner as in Example 1. To check the causes of a decrease in radiochemical purity, the radiochemical purity of the radiopharmaceutical composition was then measured in the same manner as in Example 1 at the elapsed times of 0 hour, 2 hours, 4 hours, and 6 hours at a temperature of 40° C. under three formulation conditions (Condition 1: ethanol and water for injection (formulation composition: 10% ethanol); Condition 2: ethanol and a phosphate buffer (formulation composition: a 2 nM phosphate buffer and 10% ethanol); Condition 3: ethanol and a 2×phosphate buffer (formulation composition: a 4 nM phosphate buffer and 10% ethanol)) using high-performance liquid chromatography (HPLC).
[^18F]PI-2620 was obtained as a compound having a radiochemical purity of 98% or more in the same manner as in Example 1. As a novel stabilizing agent, vitamin B1 (VB1), vitamin B6 (VB6), vitamin B8 (VB8), vitamin B10 (VB10), or vitamin B12 (VB12) (formulation composition: 10% ethanol and a 50 mg/mL vitamin concentration) was added to ethanol and water for injection, and the radiochemical purity of the radiopharmaceutical composition was measured in the same manner as in Example 1 at the elapsed times of 0 hour, 2 hours, 4 hours, and 6 hours at a temperature of 40° C. using high-performance liquid chromatography (HPLC). A preparation including no vitamin B was used as the control.
[^18F]PI-2620 was obtained as a compound having a radiochemical purity of 98% or more in the same manner as in Example 1, and formulated with ethanol and a phosphate buffer (formulation composition: a 2 nM phosphate buffer and 10% ethanol). As a novel stabilizing agent, vitamin B1 (VB1), vitamin B6 (VB6), vitamin B8 (VB8), or vitamin B10 (VB10) was added at a concentration of 50 mg/mL, and the radiochemical purity of the radiopharmaceutical composition was measured in the same manner as in Example 1 at the elapsed times of 0 hour, 2 hours, 4 hours, and 6 hours at a temperature of 40° C. using high-performance liquid chromatography (HPLC). A preparation in which sodium ascorbate was added to the same concentrations of ethanol and phosphate buffer was used as the control. […]

[2] = pH (paper) of [^18F]PI-2620 radiopharmaceutical composition over time at 40° C.; type: physicochemical
[3] = [^18F]PI-2620, 2 nM phosphate buffer and 10% ethanol, vitamin 50 mg/mL (control: sodium ascorbate), 0 hr
[4] = [^18F]PI-2620, 2 nM phosphate buffer and 10% ethanol, vitamin 50 mg/mL (control: sodium ascorbate), 2 hr
[5] = [^18F]PI-2620, 2 nM phosphate buffer and 10% ethanol, vitamin 50 mg/mL (control: sodium ascorbate), 4 hr
[6] = [^18F]PI-2620, 2 nM phosphate buffer and 10% ethanol, vitamin 50 mg/mL (control: sodium ascorbate), 6 hr
[7] = [^18F]PI-2620, ethanol and water for injection (10% ethanol), 50 mg/mL vitamin, no phosphate buffer, 0 hr
[8] = [^18F]PI-2620, ethanol and water for injection (10% ethanol), 50 mg/mL vitamin, no phosphate buffer, 2 hr
[9] = [^18F]PI-2620, ethanol and water for injection (10% ethanol), 50 mg/mL vitamin, no phosphate buffer, 4 hr
[10] = [^18F]PI-2620, ethanol and water for injection (10% ethanol), 50 mg/mL vitamin, no phosphate buffer, 6 hr
[11] = 2 nM phosphate buffer and 10% ethanol, vitamin 50 mg/mL (control: sodium ascorbate), 0 hr
[12] = 2 nM phosphate buffer and 10% ethanol, vitamin 50 mg/mL (control: sodium ascorbate), 2 hr
[13] = 2 nM phosphate buffer and 10% ethanol, vitamin 50 mg/mL (control: sodium ascorbate), 4 hr
[14] = 2 nM phosphate buffer and 10% ethanol, vitamin 50 mg/mL (control: sodium ascorbate), 6 hr
[15] = 10% ethanol, water for injection, 50 mg/mL vitamin, 0 hr
[16] = 10% ethanol, water for injection, 50 mg/mL vitamin, 2 hr
[17] = 10% ethanol, water for injection, 50 mg/mL vitamin, 4 hr
[18] = 10% ethanol, water for injection, 50 mg/mL vitamin, 6 hr

## Cc1ncc(C[n+]2csc(CCO)c2C)c(N)n1 [VB1, thiamine]
[1]; [^18F]PI-2620, 2 nM phosphate buffer and 10% ethanol, vitamin 0.78 mg/mL, 0 hr
  Purity (radiochemical purity): 99.66%
[1]; [^18F]PI-2620, 2 nM phosphate buffer and 10% ethanol, vitamin 0.78 mg/mL, 2 hr
  Purity (radiochemical purity): 99.21%
[1]; [^18F]PI-2620, 2 nM phosphate buffer and 10% ethanol, vitamin 0.78 mg/mL, 4 hr
  Purity (radiochemical purity): 97.63%
[1]; [^18F]PI-2620, 2 nM phosphate buffer and 10% ethanol, vitamin 0.78 mg/mL, 6 hr
  Purity (radiochemical purity): 97.12%
[1]; [3]
  Purity (radiochemical purity): 98.79%
[1]; [4]
  Purity (radiochemical purity): 98.46%
[1]; [5]
  Purity (radiochemical purity): 98.97%
[1]; [6]
  Purity (radiochemical purity): 98.94%
[1]; [7]
  Purity (radiochemical purity): 98.92%
[1]; [8]
  Purity (radiochemical purity): 98.97%
[1]; [9]
  Purity (radiochemical purity): 99.1%
[1]; [10]
  Purity (radiochemical purity): 98.94%
[2]; 2 nM phosphate buffer and 10% ethanol, vitamin 0.78 mg/mL, 0 hr
  PH (paper): 6
[2]; 2 nM phosphate buffer and 10% ethanol, vitamin 0.78 mg/mL, 2 hr
  PH (paper): 6
[2]; 2 nM phosphate buffer and 10% ethanol, vitamin 0.78 mg/mL, 4 hr
  PH (paper): 6
[2]; 2 nM phosphate buffer and 10% ethanol, vitamin 0.78 mg/mL, 6 hr
  PH (paper): 6
[2]; [11]
  PH (paper): 5
[2]; [12]
  PH (paper): 5.5
[2]; [13]
  PH (paper): 5.5
[2]; [14]
  PH (paper): 5.5
[2]; [15]
  PH (paper): 8
[2]; [16]
  PH (paper): 7
[2]; [17]
  PH (paper): 7
[2]; [18]
  PH (paper): 7

## C/C1=C2/[N-][C@H]([C@H](CC(N)=O)[C@@]2(C)CCC(=O)NC[C@H](C)OP(=O)([O-])O[C@H]2[C@@H](O)[C@@H](n3cnc4cc(C)c(C)cc43)O[C@@H]2CO)[C@]2(C)N=C(/C(C)=C3N=C(/C=C4N=C1[C@@H](CCC(N)=O)C\4(C)C)[C@@H](CCC(N)=O)[C@]\3(C)CC(N)=O)[C@@H](CCC(N)=O)[C@]2(C)CC(N)=O.[Co+2] (stereo in doubt) [VB12, cobalamin]
[1]; [7]
  Purity (radiochemical purity): 98.33%
[1]; [8]
  Purity (radiochemical purity): 98.99%
[1]; [9]
  Purity (radiochemical purity): 98.7%
[1]; [10]
  Purity (radiochemical purity): 98.29%
[2]; [15]
  PH (paper): 6
[2]; [16]
  PH (paper): 7.5
[2]; [17]
  PH (paper): 6.5
[2]; [18]
  PH (paper): 6.5

## Nc1ncnc2c1ncn2[C@@H]1O[C@H](COP(=O)(O)O)[C@@H](O)[C@H]1O [VB8, adenosine phosphate]
[1]; [3]
  Purity (radiochemical purity): 98.06%
[1]; [4]
  Purity (radiochemical purity): 95.43%
[1]; [5]
  Purity (radiochemical purity): 92.46%
[1]; [6]
  Purity (radiochemical purity): 87.76%
[1]; [7]
  Purity (radiochemical purity): 98.92%
[1]; [8]
  Purity (radiochemical purity): 99.14%
[1]; [9]
  Purity (radiochemical purity): 98.8%
[1]; [10]
  Purity (radiochemical purity): 98.2%
[2]; [11]
  PH (paper): 6
[2]; [12]
  PH (paper): 6
[2]; [13]
  PH (paper): 6
[2]; [14]
  PH (paper): 6
[2]; [15]
  PH (paper): 6
[2]; [16]
  PH (paper): 6
[2]; [17]
  PH (paper): 6
[2]; [18]
  PH (paper): 6

## [18F]c1cc(-c2ccc3c(n2)[nH]c2ccncc23)ccn1 [[^18F]PI-2620]
[1]; [^18F]PI-2620 under three formulation conditions (ethanol with or without phosphate buffer), 6 hr
  Purity (radiochemical purity): not decomposed at a high temperature

## Nc1ccc(C(=O)O)cc1 [VB10, 4-aminobenzoic acid]
[1]; [3]
  Purity (radiochemical purity): 98.01%
[1]; [4]
  Purity (radiochemical purity): 94.44%
[1]; [5]
  Purity (radiochemical purity): 91.25%
[1]; [6]
  Purity (radiochemical purity): 86.09%
[1]; [7]
  Purity (radiochemical purity): 99.15%
[1]; [8]
  Purity (radiochemical purity): 98.71%
[1]; [9]
  Purity (radiochemical purity): 98.83%
[1]; [10]
  Purity (radiochemical purity): 98.73%
[2]; [11]
  PH (paper): 6
[2]; [12]
  PH (paper): 6
[2]; [13]
  PH (paper): 6
[2]; [14]
  PH (paper): 6
[2]; [15]
  PH (paper): 7
[2]; [16]
  PH (paper): 6
[2]; [17]
  PH (paper): 7
[2]; [18]
  PH (paper): 7

## O=C1O[C@H]([C@@H](O)CO)C([O-])=C1O.[Na+] [Na ascorbate, sodium ascorbate]
[1]; [3]
  Purity (radiochemical purity): 99.05%
[1]; [4]
  Purity (radiochemical purity): 95.53%
[1]; [5]
  Purity (radiochemical purity): 93.77%
[1]; [6]
  Purity (radiochemical purity): 90.04%
[1]; [^18F]PI-2620, 100 mg sodium ascorbate, 2 nM phosphate buffer, 10% ethanol, 0 hr
  Purity (radiochemical purity): 99.05%
[1]; [^18F]PI-2620, 100 mg sodium ascorbate, 2 nM phosphate buffer, 10% ethanol, 2 hr
  Purity (radiochemical purity): 95.53%
[1]; [^18F]PI-2620, 100 mg sodium ascorbate, 2 nM phosphate buffer, 10% ethanol, 4 hr
  Purity (radiochemical purity): 93.77%
[1]; [^18F]PI-2620, 100 mg sodium ascorbate, 2 nM phosphate buffer, 10% ethanol, 6 hr
  Purity (radiochemical purity): 90.04%
[1]; [^18F]PI-2620, 200 mg sodium ascorbate, 2 nM phosphate buffer, 10% ethanol, 0 hr
  Purity (radiochemical purity): 99.47%
[1]; [^18F]PI-2620, 200 mg sodium ascorbate, 2 nM phosphate buffer, 10% ethanol, 2 hr
  Purity (radiochemical purity): 96.95%
[1]; [^18F]PI-2620, 200 mg sodium ascorbate, 2 nM phosphate buffer, 10% ethanol, 4 hr
  Purity (radiochemical purity): 95.25%
[1]; [^18F]PI-2620, 200 mg sodium ascorbate, 2 nM phosphate buffer, 10% ethanol, 6 hr
  Purity (radiochemical purity): 93.00%
[2]; [11]
  PH (paper): 6
[2]; [12]
  PH (paper): 6
[2]; [13]
  PH (paper): 6
[2]; [14]
  PH (paper): 6
[2]; 100 mg sodium ascorbate, 2 nM phosphate buffer, 10% ethanol, 0 hr
  PH (paper): 6
[2]; 100 mg sodium ascorbate, 2 nM phosphate buffer, 10% ethanol, 2 hr
  PH (paper): 6
[2]; 100 mg sodium ascorbate, 2 nM phosphate buffer, 10% ethanol, 4 hr
  PH (paper): 6
[2]; 100 mg sodium ascorbate, 2 nM phosphate buffer, 10% ethanol, 6 hr
  PH (paper): 6
[2]; 200 mg sodium ascorbate, 2 nM phosphate buffer, 10% ethanol, 0 hr
  PH (paper): 6
[2]; 200 mg sodium ascorbate, 2 nM phosphate buffer, 10% ethanol, 2 hr
  PH (paper): 6
[2]; 200 mg sodium ascorbate, 2 nM phosphate buffer, 10% ethanol, 4 hr
  PH (paper): 6
[2]; 200 mg sodium ascorbate, 2 nM phosphate buffer, 10% ethanol, 6 hr
  PH (paper): 6

— US20230129721A1, “STABILIZER FOR RADIOPHARMACEUTICALS AND RADIOPHARMACEUTICAL COMPOSITION COMPRISING THE SAME” (THE ASAN FOUNDATION, priority 2020, published 2023)
